In patent US7973012B2, “C-phenyl glycitol compound” (Taisho Pharmaceutical Co., Ltd, priority 2006, dated 2011):

Tests used:
[1] = system: Streptozotocin diabetic model rats; experiment: Oral glucose tolerance test in streptozotocin diabetic model rats; type: in vivo; conditions: Rattus norvegicus; STZ diabetic SD/IGS rats; 1 mg/kg oral, glucose 2 g/kg oral 5 minutes later; decrease rate of ΔAUC 0-1 h vs control group; read-out: STZ rats-OGTT(2 g/kg) % inhibition ΔAUC0-1 h(mgh/dL) @1 mg/kg
Protocol: 7-week-old SD/IGS rats (from CHARLES RIVER LABORATORIES JAPAN, INC., male) were fasted for about 16 hours. Then to these rats under etherization were administered 50 mg/kg of streptozotocin (STZ) via the tail vein to prepare diabetic model rats. Similarly, to rats under etherization were administered 1 mL/kg physiological saline containing 1.25 mmol/L of citric acid via tail veins to prepare normal control rats. One week (8 weeks old) after administration of STZ or 1.25 mmol/L citric acid physiological saline, the rats were subjected to oral glucose tolerance test.
After the rats were fasted for about 16 hours, the medicament (1 mg/kg) suspended in a 0.5% carboxymethyl cellulose (CMC) aqueous solution was orally administered to a medicament treated group, and only a 0.5% aqueous solution of CMC was orally administered to a control group. At 5 minutes after the administration, a glucose solution (2 g/kg) was orally administered to each rat, and blood was collected at 5 points in total: before the administration (0 time), after 0.25, 0.5, 1 and 2 hours after the oral administration.
The blood was collected from the orbital sinus venosus of each rat under etherization with a heparin-coated blood collection tube and centrifuged, and then blood plasma was separated. The concentration of glucose in the blood plasma was determined with Glucose CII Test Wako from Wako Pure Chemical Industries, Ltd. As for the intensity of inhibitory effect on elevation of blood glucose level, area under the blood glucose level curve (AUC) was calculated by the trapezoidal rule based on the blood glucose levels of the medicament treated group from 0 time to 1 hour time. And a basal value is subtracted from AUC to describe the intensity as area under the blood glucose level increment (ΔAUC) and describe the intensity as a decrease rate from the ΔAUC of the control group.

human SGLT1 = biological target: T1, human SGLT1 (Homo sapiens, UniProt P13866); experiment: Inhibition test of sodium-dependent sugar uptake in CHO-k1 cells stably expressing human SGLT1; type: cell-based; conditions: CHO-k1 cells expressing human SGLT1; [14C]methyl α-D-glucopyranoside uptake, 37° C., 30 minutes
T1 construct: expressed in transfected cells; host or cells: CHO-k1
T1 sequence (P13866 1-664): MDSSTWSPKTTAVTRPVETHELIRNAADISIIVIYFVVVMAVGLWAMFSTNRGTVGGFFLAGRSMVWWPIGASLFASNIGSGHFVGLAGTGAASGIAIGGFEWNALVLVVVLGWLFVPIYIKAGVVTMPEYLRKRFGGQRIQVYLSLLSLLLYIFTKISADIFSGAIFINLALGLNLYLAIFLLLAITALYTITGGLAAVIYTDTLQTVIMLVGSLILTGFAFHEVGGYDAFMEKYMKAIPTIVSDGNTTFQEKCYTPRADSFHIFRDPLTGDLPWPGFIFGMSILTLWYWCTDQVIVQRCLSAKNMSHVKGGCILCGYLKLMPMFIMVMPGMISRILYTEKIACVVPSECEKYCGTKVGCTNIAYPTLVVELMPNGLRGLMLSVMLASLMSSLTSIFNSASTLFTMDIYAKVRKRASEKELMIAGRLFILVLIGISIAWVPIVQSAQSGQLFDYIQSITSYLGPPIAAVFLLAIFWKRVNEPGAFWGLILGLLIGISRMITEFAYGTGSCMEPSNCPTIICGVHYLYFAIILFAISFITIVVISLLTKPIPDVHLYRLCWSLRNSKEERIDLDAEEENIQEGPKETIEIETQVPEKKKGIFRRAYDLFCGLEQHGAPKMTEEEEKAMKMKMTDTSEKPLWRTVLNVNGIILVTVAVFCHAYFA
Protocol: (§1) An SGLT1 sequence (NM_000343) was reverse-transcripted from human small intestinal mRNA, then amplified, and then introduced into pCMV-tag5A from Stratagene Corporation. An SGLT2 sequence (NM_003041) was prepared from human nephric mRNA as with the above method, and then introduced into pcDNA3.1+hygro from Invitrogen Corporation. Each cloned sequence was confirmed to be identical with the reported sequence.
(§2) The human SGLT1 and human SGLT2 expression vectors were transfected into CHO-k1 cells by using Lipofectamine 2000 from Invitrogen Corporation. The SGLT expression cells were incubated in the presence of Geneticin (SGLT1) or Hygromycin B (SGLT2) at a 500 μg/mL concentration to select resistant strains, and specific activity of sugar uptake was obtained as an indicator by the following system.
(§3) Cells stably expressing human SGLT1 and human SGLT2 were used for the inhibition test of sodium-dependent glucose uptake.
(§4) The cells were incubated in a pretreatment buffer A (200 μL for SGLT1, and 2 mL for SGLT2) for 20 minutes. The pretreatment buffer was removed and an uptake buffer B (75 μL for SGLT1, and 200 μL for SGLT2) containing a test compound was added to conduct an uptake reaction at 37° C. for 30 minutes (SGLT1) or an hour (SGLT2). After the reaction, the cells were washed with a washing buffer C twice (200 μL for SGLT1, and 2 mL for SGLT2), and then dissolved in a 0.2 M solution of NaOH (75 μL for SGLT1, and 400 μL for SGLT2). After a liquid scintilater was added thereto and mixed sufficiently, radioactivity was measured with microBETA (SGLT1) or a liquid scintillation counter from Beckman Coulter, Inc (SGLT2). As a control group, an uptake buffer containing no test compound was prepared. In addition, as the basic uptake buffer, an uptake buffer B containing choline chloride instead of NaCl was prepared. • A pretreatment buffer A: 140 mM choline chloride, 2 mM KCl, 1 mM CaCl2, 1 mM MgCl2, 10 mM HEPES/5 mM Tris, pH 7.4. • An uptake buffer B: 1 mM of methyl α-D-glucopyranoside containing [^14C]methyl α-D-glucopyranoside, 140 mM NaCl, 2 mM KCl, 1 mM CaCl2, 1 mM MgCl2, 10 mM HEPES/5 mM Tris, pH 7.4. • A washing buffer C: 10 mM methyl α-D-glucopyranoside, 140 mM choline chloride, 2 mM KCl, 1 mM CaCl2, 1 mM MgCl2, 10 mM HEPES/5 mM Tris, pH 7.4.
(§5) In order to obtain IC50 values, test compounds having adequate 6 concentrations were used and the test compound concentrations (IC50 values) at which sugar uptake is inhibited by 50% in comparison with the amount of sugar uptake (100%) of the control group were calculated.
(§6) In addition, the sugar uptake inhibition rates at 100 nM concentration of the test compound in comparison with the control group are shown in Table 7.

human SGLT2 = biological target: T2, human SGLT2 (Homo sapiens, UniProt P31639); experiment: Inhibition test of sodium-dependent sugar uptake in CHO-k1 cells stably expressing human SGLT2; type: cell-based; conditions: CHO-k1 cells expressing human SGLT2; [14C]methyl α-D-glucopyranoside uptake, 37° C., an hour
T2 construct: expressed in transfected cells; host or cells: CHO-k1
T2 sequence (P31639 1-672): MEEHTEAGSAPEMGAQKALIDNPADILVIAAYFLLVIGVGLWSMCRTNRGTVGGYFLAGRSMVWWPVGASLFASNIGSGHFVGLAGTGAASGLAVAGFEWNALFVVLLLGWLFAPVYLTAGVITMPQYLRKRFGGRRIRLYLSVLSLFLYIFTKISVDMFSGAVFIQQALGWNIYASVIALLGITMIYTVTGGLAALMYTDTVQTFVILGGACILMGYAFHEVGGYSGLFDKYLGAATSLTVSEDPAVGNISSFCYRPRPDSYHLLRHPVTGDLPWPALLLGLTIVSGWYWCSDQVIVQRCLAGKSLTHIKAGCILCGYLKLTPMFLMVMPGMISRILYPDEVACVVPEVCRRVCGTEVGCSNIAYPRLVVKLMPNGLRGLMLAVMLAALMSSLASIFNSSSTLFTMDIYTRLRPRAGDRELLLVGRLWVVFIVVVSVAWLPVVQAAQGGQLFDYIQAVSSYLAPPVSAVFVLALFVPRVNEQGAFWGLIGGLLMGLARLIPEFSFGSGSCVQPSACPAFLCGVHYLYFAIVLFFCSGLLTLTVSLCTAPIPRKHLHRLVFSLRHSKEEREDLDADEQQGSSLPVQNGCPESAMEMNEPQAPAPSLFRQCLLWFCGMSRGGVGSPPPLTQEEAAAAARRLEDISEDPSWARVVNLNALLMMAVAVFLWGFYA
Protocol: as §1, §2, §3, §4, §5, §6

| SMILES | inhibition in vivo at 1 mg/kg [1] [%] | IC50 (human SGLT1) [nM] | IC50 (human SGLT2) [nM] |
| --- | --- | --- | --- |
| Cc1cc(O)c([C@@H]2O[C@H](CO)[C@@H](O)[C@H](O)[C@H]2O)cc1Cc1ccc(CCCC(=O)NC(C)(C)CO)cc1 [Compound 1, (1S)-1,5-anhydro-1-[2-hydroxy-5-[4-[4-[(2-hydroxy-1,1-dimethylethyl)amino]-4-oxobutyl]benzyl]-4-methylphenyl]-D-glucitol] | 41.7 | 11 | 17 |
| Cc1cc(O)c([C@@H]2O[C@H](CO)[C@@H](O)[C@H](O)[C@H]2O)cc1Cc1ccc(CCCC(=O)NC(C)(CO)CO)cc1 [Compound 2, (1S)-1,5-anhydro-1-[2-hydroxy-5-[4-[4-[[2-hydroxy-1-(hydroxymethyl)-1-methylethyl]amino]-4-oxobutyl]benzyl]-4-methylphenyl]-D-glucitol] | 51.6 | 32 | 18 |
| Cc1cc(O)c([C@@H]2O[C@H](CO)[C@@H](O)[C@H](O)[C@H]2O)cc1Cc1ccc(CCCC(=O)NC(CO)(CO)CO)cc1 [Compound 3, (1S)-1,5-anhydro-1-[2-hydroxy-5-[4-[4-[[2-hydroxy-1,1-bis(hydroxymethyl)ethyl]amino]-4-oxobutyl]benzyl]-4-methylphenyl]-D-glucitol] | 63.9 | 35 | 65 |
| Cc1cc(O)c([C@@H]2O[C@H](CO)[C@@H](O)[C@H](O)[C@H]2O)cc1Cc1ccc(CCCC(=O)NC(C)(C)C(N)=O)cc1 [Compound 4, (1S)-1-[5-[4-[4-[(2-amino-1,1-dimethyl-2-oxoethyl)amino]-4-oxobutyl]benzyl]-2-hydroxy-4-methylphenyl]-1,5-anhydro-D-glucitol] | 51 | 51 | 31 |
| Cc1cc(O)c([C@@H]2O[C@H](CO)[C@@H](O)[C@H](O)[C@H]2O)cc1Cc1ccc(CCCNC(=O)NC(C)(C)CO)cc1 [Compound 8, (1S)-1,5-anhydro-1-[5-[4-[3-[[(2-hydroxy-1,1-dimethylethyl)aminocarbonyl]amino]propyl]benzyl]-2-hydroxy-4-methylphenyl]-D-glucitol] | 45.1 | 65 | 29 |
| Cc1cc(O)c([C@@H]2O[C@H](CO)[C@@H](O)[C@H](O)[C@H]2O)cc1Cc1ccc(CCCNC(=O)NC(CO)(CO)CO)cc1 [Compound 9, (1S)-1,5-anhydro-1-[5-[4-[3-[[[2-hydroxy-1,1-bis(hydroxymethyl)ethyl]aminocarbonyl]amino]propyl]benzyl]-2-hydroxy-4-methylphenyl]-D-glucitol] | 50.1 | 175 | 29 |
| Cc1cc(O)c([C@@H]2O[C@H](CO)[C@@H](O)[C@H](O)[C@H]2O)cc1Cc1ccc(CCNC(=O)NC(C)(C)CO)cc1 [Compound 10, (1S)-1,5-anhydro-1-[5-[4-[2-[[(2-hydroxy-1,1-dimethylethyl)aminocarbonyl]amino]ethyl]benzyl]-2-hydroxy-4-methylphenyl]-D-glucitol] | 67.8 | 51 | 23 |
| Cc1cc(O)c([C@@H]2O[C@H](CO)[C@@H](O)[C@H](O)[C@H]2O)cc1Cc1ccc(CCNC(=O)NC(CO)(CO)CO)cc1 [Compound 11, (1S)-1,5-anhydro-1-[5-[4-[2-[[[2-hydroxy-1,1-bis(hydroxymethyl)ethyl]aminocarbonyl]amino]ethyl]benzyl]-2-hydroxy-4-methylphenyl]-D-glucitol] | 69.3 | 59 | 34 |
| Cc1cc(O)c([C@@H]2O[C@H](CO)[C@@H](O)[C@H](O)[C@H]2O)cc1Cc1ccc(CCNC(=O)NC(C)(C)C(=O)N2CCN(C)CC2)cc1 [Compound 12, (1S)-1,5-anhydro-1-[5-[4-[2-[[[1-[1-(4-methylpiperazin-1-yl)carbonyl]-1-(methyl)ethyl]aminocarbonyl]amino]ethyl]benzyl]-2-hydroxy-4-methylphenyl]-D-glucitol] | 48.8 | 113 | 48 |
